Source: patent publication US5679645A, “Sialic acid powder and process for the preparation thereof” (Snow Brand Milk Products Co., Ltd., priority 1993, dated 1997)

Assays:
[1] = Water content of sialic acid powders (Table 1, comparison of properties); assay type: physicochemical; conditions: for Water content: Table 1
[2] = Time for complete dissolution in methanol suspension with Dowex 50; assay type: physicochemical
Experimental: A suspension of 10 g of Dowex 50 (trademark, manufactured by Dow Chemical; H+-type, 100-200 mesh, washed with hot methanol) in 100 ml of methanol was prepared. 10 g of Amorphous Powder 1--1, Needles 1--1, or Prisms 1--1 prepared in Example 1 was each charged to the suspension at 25° C. while vigorously stirring. While continuing the stirring at 25° C., the mixture was sampled from time to time to measure the time required for the sialic acids to be dissolved completely to form a clear solution, the degree of reaction, and the final reaction yield. The reaction yield was calculated by HPLC (HPX-87H column, trademark, manufactured by Bio Rad Co.).

[3] = Relationship between freezing rate and properties of the freeze-dried powder (degree of crystallization, water content; Table 2); assay type: physicochemical; conditions: 40% by weight aqueous solution
Experimental: Relationship between the freezing rate of a sialic acid aqueous solution and properties of the ultimate product was studied. 40% by weight aqueous solution of sialic acids was used and frozen for different periods of time using liquid nitrogen, a cooling shelf, and a freezer, and freeze-dried for 4 days. The degree of crystallization and the water content were measured.

[4] = Solubility in water and organic solvents (statement)
[5] = 10 g in 100 ml methanol with 10 g Dowex 50 (H+), 25° C., stirring
[6] = time for freezing 1 minute or shorter
[7] = time for freezing 5 minute or shorter
[8] = time for freezing 10 minute or shorter
[9] = time for freezing 30 minute or shorter
[10] = time for freezing 1 hour or shorter
[11] = time for freezing 3 hours or shorter

CC(=O)N[C@H]1[C@H]([C@H](O)[C@H](O)CO)OC(O)(C(=O)O)C[C@@H]1O (some centres unmarked) [Needles 1-1, sialic acid]
Water content [1]: 2.1%
Time required for complete dissolution [2, 5]: 27 min

CC(=O)N[C@H]1[C@H]([C@H](O)[C@H](O)CO)OC(O)(C(=O)O)C[C@@H]1O (some centres unmarked) [Prisms 1-1, sialic acid]
Water content [1]: 10.9%
Crystal water contained in the powder ([1]; stated in discussion of Table 3): about 10%
Complete dissolution after 5 hours (in words) ([2]; methanol with Dowex 50, 25° C., 5 hours): did not completely dissolved

CC(=O)N[C@H]1[C@H]([C@H](O)[C@H](O)CO)OC(O)(C(=O)O)C[C@@H]1O (some centres unmarked) [freeze-dried powder, sialic acid]
Crystallization degree [3, 6]: 0%
Water content [3, 6]: 1.1-1.7%
Crystallization degree [3, 7]: > 0.1%
Water content [3, 7]: 1.2-1.9%
Crystallization degree [3, 8]: 0.2-0.4%
Water content [3, 8]: 1.4-2.1%
Crystallization degree [3, 9]: 1.8-2.3%
Water content [3, 9]: 2.4-3.6%
Crystallization degree [3, 10]: 9.8-15.1%
Water content [3, 10]: 3.9-4.8%
Crystallization degree [3, 11]: 26-35%
Water content [3, 11]: 5.1-6.2%

CC(=O)N[C@H]1[C@H]([C@H](O)[C@H](O)CO)OC(O)(C(=O)O)C[C@@H]1O (some centres unmarked) [sialic acid]
Water content (in words) ([1]; compared with needles): very close to those of needles
Solubility in organic solvents and reactivity (in words) ([4]; compared with needles): superiority to such sialic acid needles, in terms of solubility in organic solvents and the reactivity
Solubility in water (in words) ([4]; compared with needles and prisms): more excellent in its solubility in water than both the needles and the prisms

CC(=O)N[C@H]1[C@H]([C@H](O)[C@H](O)CO)OC(O)(C(=O)O)C[C@@H]1O (some centres unmarked) [Amorphous Powder 1-1, sialic acid]
Water content [1]: 2.2%
Time required for complete dissolution [2, 5]: 6 min
Time required for complete dissolution (in words) [2, 5]: dissolved fastest
